According to patent US6638524B2, “Cosmetics, foods and beverages supplemented with purified strictinin” (National Agricultural Research Organization, priority 2000, dated 2003):

Columns and labels:
[1] = tested on: mast cells in abdominal cavity of rat; details: literature report; cited from earlier work
[2] = tested on: CεGT inducible expression by IL-4 in human B cell line DND 39; test: expression of IgE heavy chain germline transcript (CεGT) induced by IL-4 in human B cell line DND 39 (IgE class switch suppression); type: cell-based; details: strictinin 1, 10 and 25 μM added at the same time with IL-4, DND 39, FIG. 3
Protocol: (§1) Each of Fr. 1 to 5 in Experimental Example 1 was evaluated for its antiallergic action in vitro by a method for the expression of a transcript of an IgE heavy chain germline transcript which was to investigate the suppression of IgE production in human B cells (IgE class switch suppression). This is a method utilizing the fact that, when human B cells are stimulated by IL-4 to induce the production of IgE, a transcription is started from the upstream intron corresponding to an ε region (Cε) in the constant domain gene of the Ig gene whereupon a transcript (CεGT: germline transcript) is expressed and, after that, a class switch of IgE is resulted by a DNA recombination. CεGT is an RNA which is always expressed before the IgE production is induced and the expressed amount of CεGT is proportional to the class switch amount of the IgE gene. Therefore, when the degree of expressed amount of CεGT is detected, it is possible to estimate the IgE class switch amount.
A method for the expression of an IgE heavy chain germline transcript was carried out according to the following procedures. […]
Then, a cDNA library was prepared according to the following procedure. First, concentration of the extracted total RNA was measured by an absorptiometer, a portion of 10 μg was taken in a 0.6 mL tube and water was added thereto to make 11.8 μL. […]

[3] = tested on: CεGT inducible expression by IL-4 in human peripheral blood lymphocytes; test: expression of IgE heavy chain germline transcript (CεGT) induced by IL-4 in human peripheral blood lymphocytes; type: cell-based; details: strictinin 25 μM added at the same time with IL-4, human peripheral blood lymphocytes, FIG. 4
Protocol: as §1
Human peripheral blood normal cells (monocytes; separated from the blood which was collected from a healthy human volunteer) was used instead of the human B cell line DND 39 of Experimental Example 3 and an antiallergic activity was measured by the same way as in the method for the expression of an IgE heavy chain germline transcript mentioned in Experimental Example 2. […]

| SMILES | liberation of histamine from mast cells [1] | IgE class switch by addition of IL-4 (CεGT inducible expression) [2] | IgE class switch by addition of IL-4 (CεGT inducible expression) [3] |
| --- | --- | --- | --- |
| O=C(O[C@@H]1Cc2c(O)cc(O)cc2O[C@@H]1c1ccc(O)c(O)c1)c1cc(O)c(O)c(O)c1 [epicatechin gallate] | suppress |  |  |
| O=C(O[C@@H]1Cc2c(O)cc(O)cc2O[C@@H]1c1cc(O)c(O)c(O)c1)c1cc(O)c(O)c(O)c1 [epigallocatechin gallate] | suppress |  |  |
| O=C(O[C@@H]1O[C@@H]2COC(=O)c3cc(O)c(O)c(O)c3-c3c(cc(O)c(O)c3O)C(=O)O[C@H]2[C@H](O)[C@H]1O)c1cc(O)c(O)c(O)c1 [strictinin] |  | strongly suppressed | strongly suppressed |
